Consider eight compounds from patent publication US9000010B2, “Alkyl-heterocycle carbamate derivatives, their preparation and their therapeutic application” (Sanofi, priority 2010, dated 2015).

In data set [1] the target is T1, FAAH (Fatty Acid Amide Hydrolase) (Mus musculus, UniProt O08914).
T1 construct: The membrane homogenates are prepared at the time of use by homogenization of the tissues; from tissue; host or cells: mouse brain (minus the cerebellum), membrane homogenate
T1 sequence (O08914 1-579): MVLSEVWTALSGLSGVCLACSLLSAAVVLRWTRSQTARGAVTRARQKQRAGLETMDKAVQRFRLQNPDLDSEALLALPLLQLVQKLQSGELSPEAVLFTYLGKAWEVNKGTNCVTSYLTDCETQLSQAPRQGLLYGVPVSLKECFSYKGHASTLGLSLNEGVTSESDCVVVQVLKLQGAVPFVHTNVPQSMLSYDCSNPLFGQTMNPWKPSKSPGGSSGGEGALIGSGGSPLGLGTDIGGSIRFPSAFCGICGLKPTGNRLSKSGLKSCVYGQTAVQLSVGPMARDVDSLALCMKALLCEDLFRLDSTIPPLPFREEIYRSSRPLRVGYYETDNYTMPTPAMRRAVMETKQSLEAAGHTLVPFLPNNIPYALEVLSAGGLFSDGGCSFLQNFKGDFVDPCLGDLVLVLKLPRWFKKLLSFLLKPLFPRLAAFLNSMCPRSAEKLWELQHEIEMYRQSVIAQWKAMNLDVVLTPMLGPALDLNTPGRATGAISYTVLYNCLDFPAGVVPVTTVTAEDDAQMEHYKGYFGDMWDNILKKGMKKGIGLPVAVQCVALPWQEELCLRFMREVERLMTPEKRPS
The data set is described as follows: Radioenzymatic test of FAAH inhibition: hydrolysis of anandamide [ethanolamine 1-3H] by mouse brain membrane homogenates. It counts as biochemical. The note with it: mouse brain membrane homogenate; preincubation 20 min at 25° C.; anandamide 10 μM; read-out: CI50 (concentration which inhibits the control enzymatic activity of FAAH by 50%). The method, then: The compounds of the invention form the subject of pharmacological trials which make it possible to determine their inhibitory effect on the enzyme FAAH (Fatty Acid Amide Hydrolase).
Thus, mouse brains (minus the cerebellum) are removed and stored at −80° C. The membrane homogenates are prepared at the time of use by homogenization of the tissues using a Precellys® device in the reaction buffer (Tris-HCl 10 mM pH=8, NaCl 150 mM and ethylenediaminetetraacetic acid (EDTA) 1 mM). The enzymatic reaction is carried out in 96-well MultiScreen filtration plates in a final volume of 70 μl. Reaction buffer supplemented with bovine serum albumin free from fatty acids (BSA, 1 mg/ml) is used for the enzymatic reaction, the dilution of the compounds and the dilution of the anandamide [ethanolamine 1-^3H]. Reaction buffer comprising the BSA (43 μl/well), the diluted test compounds at different concentrations (7 μl/well comprising 1% of DMSO) and the membrane preparation (10 μl/well, i.e. 200 μg of tissue per trial) are successively added to the wells. After preincubating the compounds with the enzyme at 25° C. for 20 minutes, the reaction is initiated by the addition of anandamide [ethanolamine 1-^3H] (specific activity of 15-20 Ci/mmol) diluted with cold anandamide (10 μl/well, final concentration of 10 μM, 0.01 μCi, per trial). After incubating at 25° C. for 20 minutes, the enzymatic reaction is halted by addition of a […] active charcoal solution prepared in a 1.5M NaCl and 0.5M HCl buffer (50 μl/well). The mixture is stirred for 10 minutes and then the aqueous phase comprising the [1-^3H]ethanolamine is recovered by filtration under vacuum and counted by liquid scintillation.

Turning to `O=C(OCc1cscn1)N1CCC(COc2cnc3ccccc3c2)C1` (racemic) [No. 26, Thiazol-4-ylmethyl (+/−)-3-(quinolin-3-yloxymethyl)-pyrrolidine-1-carboxylate], the melting point (in general, the temperature, or range, at which the solid turns liquid) fell in the range of 83 to 85 °C. In addition, the IC50 in data set [1] worked out at 86 nM. The like results for `O=C(OCc1nccs1)N1CCC(COc2ccc3c(Cl)cccc3c2)C1` (racemic) [No. 196, Thiazol-2-ylmethyl (+/−)-3-(5-chloronaphth-2-yloxymethyl)pyrrolidine-1-carboxylate] were, in that order, 100 to 102 °C and 252 nM. For `NC(=O)c1cc(COC(=O)N2CC[C@@H](COc3ccc4ccccc4c3)C2)on1` (single isomer, unassigned) [No. 200], in that order: 138 to 140 °C and 122 nM. For `NC(=O)c1cc(COC(=O)N2CC[C@H](COc3ccc4ccccc4c3)C2)on1` (single isomer, unassigned) [No. 202], in that order: 139 to 141 °C and 8 nM. `O=C(OCc1nccs1)N1CCC(CCOc2ccc(Cc3ccccc3)cc2)CC1` [No. 49, Thiazol-2-ylmethyl 4-[2-(4-benzylphenoxy)ethyl]-piperidine-1-carboxylate]: the IC50 in data set [1] stood at 19 nM. Same read-out and setting: for `CCCCOc1cccc(OCCC2CCN(C(=O)OCc3nccs3)CC2)c1` [No. 60, Thiazol-2-ylmethyl 4-[2-(3-butoxyphenoxy)ethyl]-piperidine-1-carboxylate] the value was 95 nM; for `CCCCOc1cccc(OCCC2CCN(C(=O)OCc3cscn3)CC2)c1` [No. 90, Thiazol-4-ylmethyl 4-[2-(3-butoxyphenoxy)ethyl]-piperidine-1-carboxylate], 92 nM. `NC(=O)c1cc(COC(=O)N2CCC(CCOc3ccc(OC(F)(F)F)cc3)CC2)on1` [No. 199, 3-Carbamoylisoxazol-5-ylmethyl 4-[2-(4-{trifluoromethoxy}phenoxy)ethyl]piperidine-1-carboxylate] showed a melting point of 112 to 115 °C. Besides, the IC50 in data set [1] turned out to be 350 nM.
